Assay results as given in patent US7446199B2, “Compositions useful as inhibitors of protein kinases” (Vertex Pharmaceuticals Incorporated, priority 2003, dated 2008).
pKi: −log10 of the molar value.

What was measured:
c-KIT = target: T1, c-KIT (Homo sapiens, UniProt P10721); assay: Inhibition of c-KIT, radiometric filter-binding assay; format: biochemical; conditions: 700 μM ATP, 0.5 mg/mL pE4Y, room temperature
T1 construct: 0.02% BSA and 25 nM c-KIT
Outline: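 Radiometric filter-binding: 25 nM c-KIT (enzyme in the Solution 2 mix) with poly(Glu,Tyr) 4:1 substrate at 0.5 mg/mL and [γ-^33P]ATP at 700 μM (both final), in HEPES pH 7.5/MgCl2/NaCl/DTT/BSA with 2.5% DMSO. Incubated 20 min at room temperature, stopped with TCA, and ^33P incorporation counted on filters. 12-point titration, final compound typically 0.01-5 μM; IC50 or Ki from curve fit.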

JAK3 = target: T2, JAK3 (Homo sapiens, UniProt P52333); assay: JAK3 inhibition assay (ELISA, Poly (Glu, Ala, Tyr) coated plates); format: biochemical; conditions: 2 mM ATP, 60 minutes at 30° C.
T2 sequence (P52333 1-1124): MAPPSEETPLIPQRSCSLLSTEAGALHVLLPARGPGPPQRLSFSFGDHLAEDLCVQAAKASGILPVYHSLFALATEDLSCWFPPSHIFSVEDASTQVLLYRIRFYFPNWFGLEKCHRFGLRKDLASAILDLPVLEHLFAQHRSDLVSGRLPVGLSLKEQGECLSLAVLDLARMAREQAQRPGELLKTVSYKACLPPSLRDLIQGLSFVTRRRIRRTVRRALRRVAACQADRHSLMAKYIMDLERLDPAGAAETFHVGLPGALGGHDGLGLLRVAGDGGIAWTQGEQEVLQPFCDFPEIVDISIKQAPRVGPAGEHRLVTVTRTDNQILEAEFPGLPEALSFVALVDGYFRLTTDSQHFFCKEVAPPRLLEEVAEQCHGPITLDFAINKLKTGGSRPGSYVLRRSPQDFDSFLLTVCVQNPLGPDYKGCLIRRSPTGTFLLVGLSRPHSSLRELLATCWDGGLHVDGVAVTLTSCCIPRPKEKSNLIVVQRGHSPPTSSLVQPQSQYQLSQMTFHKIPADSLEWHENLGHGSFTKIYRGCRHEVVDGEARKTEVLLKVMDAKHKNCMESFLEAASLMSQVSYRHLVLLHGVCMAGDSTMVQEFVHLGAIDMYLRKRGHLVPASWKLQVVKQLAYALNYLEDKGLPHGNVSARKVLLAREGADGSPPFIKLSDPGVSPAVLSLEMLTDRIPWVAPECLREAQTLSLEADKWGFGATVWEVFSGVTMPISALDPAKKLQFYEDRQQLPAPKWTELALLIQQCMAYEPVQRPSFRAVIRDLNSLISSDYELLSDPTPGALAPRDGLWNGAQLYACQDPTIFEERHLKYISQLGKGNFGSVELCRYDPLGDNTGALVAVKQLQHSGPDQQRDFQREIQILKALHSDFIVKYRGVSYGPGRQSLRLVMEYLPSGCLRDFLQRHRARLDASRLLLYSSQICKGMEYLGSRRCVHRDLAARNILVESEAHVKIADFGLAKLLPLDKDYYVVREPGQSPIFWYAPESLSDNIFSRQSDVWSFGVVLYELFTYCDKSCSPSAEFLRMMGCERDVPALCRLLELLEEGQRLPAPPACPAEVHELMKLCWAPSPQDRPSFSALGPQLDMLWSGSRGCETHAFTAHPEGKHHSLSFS
Outline: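 ELISA on Poly(Glu,Ala,Tyr) 6:3:1-coated plates with 2 mM ATP and 5 mM MgCl2. JAK enzyme started the reaction, run 60 min at 30° C. Phosphotyrosine was detected with HRP-conjugated 4G10 antibody and TMB, read at 450 nm, and IC50 was derived from optical densities.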

T1 sequence (P10721 26-976): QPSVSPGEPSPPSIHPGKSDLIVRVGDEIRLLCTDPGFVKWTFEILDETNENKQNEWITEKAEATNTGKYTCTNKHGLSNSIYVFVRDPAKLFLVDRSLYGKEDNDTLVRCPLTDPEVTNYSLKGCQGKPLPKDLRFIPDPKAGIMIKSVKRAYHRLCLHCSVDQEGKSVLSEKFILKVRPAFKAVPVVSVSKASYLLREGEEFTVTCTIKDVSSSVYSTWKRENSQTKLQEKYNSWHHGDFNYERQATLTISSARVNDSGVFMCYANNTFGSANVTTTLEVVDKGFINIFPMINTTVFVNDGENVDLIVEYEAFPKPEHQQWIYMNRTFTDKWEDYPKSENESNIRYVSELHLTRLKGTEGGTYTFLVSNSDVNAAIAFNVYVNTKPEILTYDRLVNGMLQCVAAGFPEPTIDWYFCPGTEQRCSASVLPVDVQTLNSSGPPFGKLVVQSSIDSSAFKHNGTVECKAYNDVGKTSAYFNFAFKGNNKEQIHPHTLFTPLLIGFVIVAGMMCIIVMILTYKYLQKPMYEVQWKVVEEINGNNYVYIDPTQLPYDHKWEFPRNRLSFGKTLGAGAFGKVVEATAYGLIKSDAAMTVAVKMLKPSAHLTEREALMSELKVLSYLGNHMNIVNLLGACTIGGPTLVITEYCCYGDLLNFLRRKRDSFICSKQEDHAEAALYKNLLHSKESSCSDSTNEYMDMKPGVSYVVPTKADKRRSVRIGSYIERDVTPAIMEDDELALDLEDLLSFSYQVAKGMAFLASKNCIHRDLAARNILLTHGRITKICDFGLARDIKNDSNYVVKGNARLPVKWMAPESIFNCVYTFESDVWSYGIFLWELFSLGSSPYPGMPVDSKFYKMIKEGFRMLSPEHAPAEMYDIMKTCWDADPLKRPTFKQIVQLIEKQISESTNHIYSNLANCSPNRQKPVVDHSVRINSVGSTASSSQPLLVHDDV

SMILES | pKi (c-KIT) | pKi (JAK3)
CN(C)CCNc1ccc(-c2cnc3[nH]cc(-c4nncn4-c4cccc(F)c4F)c3c2)cn1 [Compound 119, N′-(5-{3-[4-(2,3-Difluoro-phenyl)-4H-[1,2,4]triazol-3-yl]-1H-pyrrolo[2,3-b]pyridin-5-yl}-pyridin-2-yl)-N,N-dimethyl-ethane-1,2-diamine] | 6.00 to 6.70 | 4.90 to 6.00
Cc1noc(-c2c[nH]c3ncc(-c4ccc(N5CCN(C)CC5)cc4)cc23)c1-c1cccc(F)c1F [Compound 135, 3-[4-(2,3-Difluoro-phenyl)-3-methyl-isoxazol-5-yl]-5-[4-(4-methyl-piperazin-1-yl)-phenyl]-1H-pyrrolo[2,3-b]pyridine] | > 6.70 | > 6.70
Fc1cccc(-c2cnoc2-c2c[nH]c3ncc(C4=CCC(NCc5ccccc5)CC4)cc23)c1F (stereo not shown) [Compound 136, Benzyl-(4-{3-[4-(2,3-difluoro-phenyl)-isoxazol-5-yl]-1H-pyrrolo[2,3-b]pyridin-5-yl}-cyclohex-3-enyl)-amine] | > 6.70 | > 6.70
NC1CC=C(c2cnc3[nH]cc(-c4oncc4-c4cccc(F)c4F)c3c2)CC1 (stereo not shown) [Compound 137, 4-{3-[4-(2,3-Difluoro-phenyl)-isoxazol-5-yl]-1H-pyrrolo [2,3-b]pyridin-5-yl}-cyclohex-3-enylamine] | > 6.70 | > 6.70
CN(C)C1CC=C(c2cnc3[nH]cc(-c4oncc4-c4cccc(F)c4F)c3c2)CC1 (stereo not shown) [Compound 138, (4-{3-[4-(2,3-Difluoro-phenyl)-isoxazol-5-yl]-1H-pyrrolo[2,3-b]pyridin-5-yl}-cyclohex-3-enyl)-dimethyl-amine] | > 6.70 | > 6.70
Fc1cccc(-c2cnoc2-c2c[nH]c3ncc(C4=CCC(N5CCOCC5)CC4)cc23)c1F (stereo not shown) [Compound 139, 3-[4-(2,3-Difluoro-phenyl)-isoxazol-5-yl]-5-(4-morpholin-4-yl-cyclohex-1-enyl)-1H-pyrrolo[2,3-b]pyridine] | > 6.70 | > 6.70
CS(=O)(=O)NC1CC=C(c2cnc3[nH]cc(-c4oncc4-c4cccc(F)c4F)c3c2)CC1 (stereo not shown) [Compound 140, N-(4-{3-[4-(2,3-Difluoro-phenyl)-isoxazol-5-yl]-1H-pyrrolo[2,3-b]pyridin-5-yl}-cyclohex-3-enyl)-methanesulfonamide] | > 6.70 | > 6.70
Cn1ccc2c(-c3oncc3-c3cccc(F)c3F)c[nH]c2c1=O [Compound 144, 3-[4-(2,3-Difluoro-phenyl)-isoxazol-5-yl]-6-methyl-1,6-dihydro-pyrrolo[2,3-c]pyridin-7-one] | 6.00 to 6.70 | 4.90 to 6.00
